How the values were obtained:
[1] = tested on: S. lividans pCAO200SU1-FeS-B#9; assay: Sulfonylurea metabolism by washed cell suspension (Examples 6-9); type: in vitro ADME, Streptomyces lividans
Description: (§1) Herbicides and their metabolites are measured by HPLC as described by Romesser et al., BBRC 140: 650-659 (1986), herein incorporated by reference, except that 0.1% H3 PO4 is used in both solvents. Chromatographic identity and quantitation of the herbicides and their resulting metabolites is determined by comparing them chromatographically with authentic standard compounds. Identity of the resulting metabolites is also confirmed by UV spectroscopy.
A 100 ml culture of S. griseolus ATCC 11796 in sporulation broth and a 50 ml culture of S. lividans transformed with pCAO400 in YEME broth were prepared and incubated for 24 hours as described. At that time, the S. griseolus culture was split into two 50 ml aliquots into two separate flasks and 25 ml of fresh sporulation broth was added to each and 9 mg of […] was added to one of these cultures to induce cytochrome P450SU1 expression. Fresh YEME broth (25 ml) was added to the S. lividans culture. After an additional 6 hours growth at 30° C., the cells in each culture were harvested as described above, washed twice with MOPS (50 mM, pH 7.2) and recentrifuged. The cell pellets were resuspended in four cell volumes of MOPS (50 mM, pH 7.2) containing 0.2% glucose and about 100 μg/ml of 10004. These cell suspensions were incubated at 30° C. with shaking and aliqouts were taken at 2 and 5.5 hours. The supernatant of each aliquot was analyzed by HPLC and the concentrations of the sulfonylurea compound 10004 and its metabolite 10005 were determined.
S. lividans transformed respectively with pCAO200SU1-FeS-B#9, pCAO200SU#112and pCAO200 were cultured for 36 hours in 400 ml of YEME broth at 30° C. S. griseolus ATCC 11796 was similarly cultured in 400 ml of sporulation broth. Six hours before harvesting the cells, 150 ml of fresh YEME broth was added to the S. lividans cells, and the S. griseolus cells were split into two 200 ml cultures with 100 ml of fresh sporulation broth added to each. 10001 (36 mg) was added to one of the two S. griseolus cultures to induce cytochrome P450SU1. […]

[2] = tested on: S. lividans pCAO200SU2-FeS-A#11; assay: Sulfonylurea metabolism by washed cell suspension (Examples 11-12); type: in vitro ADME, Streptomyces lividans; conditions: substrate 10010
[3] = tested on: S. lividans pCAO200SU1#12; assay: Sulfonylurea metabolism by washed cell suspension (Examples 6-9); type: in vitro ADME, Streptomyces lividans
Description: as §1, with “spectroscopy. […]” for “spectroscopy.”
(§2) S. lividans transformed respectively with pCAO200SU1-FeS-B#9, pCAO200SU#112and pCAO200 were cultured for 36 hours in 400 ml of YEME broth at 30° C. S. griseolus ATCC 11796 was similarly cultured in 400 ml of sporulation broth. Six hours before harvesting the cells, 150 ml of fresh YEME broth was added to the S. lividans cells, and the S. griseolus cells were split into two 200 ml cultures with 100 ml of fresh sporulation broth added to each. 10001 (36 mg) was added to one of the two S. griseolus cultures to induce cytochrome P450SU1. The cells were prepared as described above in Example 5 and the concentrations of the sulfonylurea compound 10006 and its metabolites 10007, 10008 or 10009 were determined.

S. lividans pCAO200 [4] = assay: as above; type: in vitro ADME, Streptomyces lividans; conditions: substrate 10010
[5] = tested on: S. lividans pCAO200SU1-FeS-B#9; assay: Percent conversion of non-sulfonylurea herbicides (Example 29); type: in vitro ADME, Streptomyces lividans; conditions: for Percent Conversion: 3.0 mg herbicide in 25 ml broth, 18 hours; for metabolism by bacteria containing constitutively expressed P450SU1: summary of Table 29
Description: This experiment was performed as in Example 17 with the following changes. Separate cultures (50 ml) inoculated with S. lividans C37, S. lividans transformed with pCAO200SU1-FeS-B#9, or S. griseolus ATCC11796 were cultured in sporulation broth for 18 hours at 30° C. with shaking. Each culture was then resuspended in 25 ml fresh sporulation broth and 3.0 mg herbicide added. Each culture was reincubated for 18 hours, then an aliquot of the medium was withdrawn and analyzed by HPLC. The percent conversion of herbicide was determined.

S. griseolus ATCC11796 = assay: Metabolism of 10015 analogs to 10014 (Example 17); type: in vitro ADME, Streptomyces griseolus
Description: Cultures of S. griseolus ATCC11796 were cultivated in sporulation-broth (50ml) at 30° C. with shaking for 17 hours. Each culture was then resuspended in 25 ml fresh sporulation broth, 3.0 mg sulfonylurea was added, and the culture reincubated for 4 days. Aliquots of the medium were then analyzed by HPLC. Formation of 10014 was measured based on similarity of retention time and UV spectrum of the test metabolite to that formed by metabolism of 10015.

[6] = tested on: S. griseolus PH2003 pCS325; assay: Percent conversion of herbicides by cultures (Example 16); type: in vitro ADME, Streptomyces griseolus; conditions: for Percent Conversion: 3.0 mg herbicide in 25 ml broth, 24 hours; for metabolism by bacteria containing constitutively expressed P450SU2: summary of Table 13
Description: (§3) Separate cultures (50 ml) inoculated with S. lividans C37, S. lividans transformed with pCAO200SU1-FeS-B#9, S. griseolus ATCC11796, S. griseolus PH2003 transformed with pIJ425, or S. ariseolus PH2003 transformed with pCS325 were cultured in sporulation broth for 18 hours at 30° C. with shaking. Each culture was then resuspended in 25 ml fresh sporulation broth and 3.0 mg herbicide added. In the case of cultures of S. griseolus ATCC11796, a second culture containing herbicide and 3.0 mg 10001 was also prepared. Each culture was reincubated for 24 hours, then an aliquot of the medium was withdrawn and analyzed by HPLC. The percent conversion of herbicide was determined.

[7] = tested on: S. griseolus PH2003 pIJ425; assay: as above; type: in vitro ADME, Streptomyces griseolus; conditions: 3.0 mg herbicide in 25 ml broth; 24 hours
Description: as §3

[8] = tested on: S. lividans pCAO200SU1-FeS-B#9; assay: as above; type: in vitro ADME, Streptomyces lividans; conditions: for Percent Conversion: 3.0 mg herbicide in 25 ml broth, 24 hours
Description: as §3

S. lividans C37 = assay: as above; type: in vitro ADME, Streptomyces lividans; conditions: 3.0 mg herbicide in 25 ml broth; 24 hours
Description: as §3

S. lividans pCAO200 [9] = assay: Sulfonylurea metabolism by washed cell suspension (Examples 6-9); type: in vitro ADME, Streptomyces lividans; conditions: substrate 10006
Description: as §1, with “spectroscopy. […]” for “spectroscopy.”
as §2

COC(=O)c1ccccc1S(=O)(=O)NC(=O)Nc1nc(C)cc(CO)n1 [compound 10011, N-[(4-hydroxymethyl-6-methyl-pyrimidin-2-yl)aminocarbonyl]-2-methoxycarbonylbenzenesulfonamide] gave a concentration in supernatant ([1]; substrate 10010, 2 h) of 34 µM, a concentration in supernatant ([1]; substrate 10010, 4 h) of 37 µM and a concentration in supernatant ([1]; substrate 10010, 6 h) of 27 µM. It also gave a concentration in supernatant ([2]; 2 h) of 1 µM, a concentration in supernatant ([2]; 4 h) of 5 µM and a concentration in supernatant ([2]; 6 h) of 14 µM. It also gave a concentration in supernatant ([3]; substrate 10010, 2 h) of 4 µM, a concentration in supernatant ([3]; substrate 10010, 4 h) of 7 µM and a concentration in supernatant ([3]; substrate 10010, 6 h) of 11 µM. The concentration in supernatant (S. lividans pCAO200 [4]; 2 h) was 1 µM, the concentration in supernatant (S. lividans pCAO200 [4]; 4 h) was 2 µM and the concentration in supernatant (S. lividans pCAO200 [4]; 6 h) was 3 µM.

In the case of Cc1cc(C)nc(S(=O)(=O)Nc2c(Cl)cccc2Cl)n1 [compound 10036, N-(2,6-dichlorophenyl)-4,6-dimethyl-2-pyrimidinesulfonamide], the “Percent Conversion” value [5] is reported as 100% and the “metabolism by bacteria containing constitutively expressed P450SU1” value (shortened to “metabolism … expressed P450SU1”) [5] is reported as “metabolized”.

COc1cc(OC)nc(NC(=O)NS(=O)(=O)c2cccc3c2S(=O)(=O)N(C[Si](C)(C)C)C3)n1 [compound 10032, N-[(4,6-dimethoxypyrimidin-2-yl)aminocarbonyl]-2,3-dihydro-2-(trimethylsilylmethyl)-1,2-benzisothiazole-7-sulfonamide-1,1-dioxide] was tested, and the “% Conversion to 10014” value (S. griseolus ATCC11796; 3.0 mg sulfonylurea in 25 ml broth, 4 days) was 0%.

COC(=O)C1Cc2c(c(Cl)cc(F)c2N2C(=O)C3=C(CCCC3)C2=O)O1 (centres unmarked) [compound 10020, 7-chloro-5-fluoro-4-(2,3,4,5,6,7-hexahydro-1,3-dioxo-1H-isoindol-2-yl)-2,3-dihydro-2-benzofurancarboxylic acid, methyl ester] was tested, and the “Percent Conversion” value [6] was 89%, the “metabolism by bacteria containing constitutively expressed P450SU2” value (“metabolism … expressed P450SU2” below) [6] was “metabolized” and the “Percent Conversion” value [7] was 7%. For the same compound, the “Percent Conversion” value [8] was 19%.

In the case of CCNc1nc(Cl)nc(NC(C)(C)C#N)n1 [compound 10021, 2-[4-chloro-6-(ethylamino-1,3,5-triazin-2-yl)amino]-2-methylpropanenitrile], the “Percent Conversion” value [6] is reported as 93%, the “metabolism … expressed P450SU2” value [6] is reported as “metabolized” and the “Percent Conversion” value [7] is reported as 7%. For the same compound, the “Percent Conversion” value [8] was 23% and the “Percent Conversion” value (S. lividans C37) was 0%.

In the case of CSc1nnc(C(C)(C)C)c(=O)n1N [compound 10018, 4-amino-6-tert-butyl-3-(methylthio)-AS-triazin-5(4H)-one], the “Percent Conversion” value [6] is reported as 72%, the “metabolism … expressed P450SU2” value [6] is reported as “metabolized” and the “Percent Conversion” value [7] is reported as 10%. The “Percent Conversion” value [8] was 56%, the “metabolism … expressed P450SU1” value ([8]; summary of Table 13) was “metabolized” and the “Percent Conversion” value (S. lividans C37) was 0%.

In the case of CCN1Cc2cccc(S(=O)(=O)NC(=O)Nc3nc(OC)cc(OC)n3)c2S1(=O)=O [compound 10024, N-[(4,6-dimethoxypyrimidin-2-yl)aminocarbonyl]-2-ethyl-2,3-dihydro-1,2-benzisothiazole-7-sulfonamide-1,1-dioxide], the “metabolism by P450SU1 to phytotoxic 10014” value (“metabolism by P450SU1” for short) (S. griseolus ATCC11796) is reported as “metabolized”.

C=CCN1Cc2cccc(S(=O)(=O)NC(=O)Nc3nc(OC)cc(OC)n3)c2S1(=O)=O [compound 10028, N-[(4,6-dimethoxypyrimidin-2-yl)aminocarbonyl]-2,3-dihydro-2-(2-propenyl)-1,2-benzisothiazole-7-sulfonamide-1,1-dioxide] was tested, and the “metabolism by P450SU1” value (S. griseolus ATCC11796) was “metabolized”.

For Cc1cc(C)n2nc(S(=O)(=O)Nc3c(C)cccc3Cl)nc2n1 [compound 10033, N-(2-chloro-6-methylphenyl)-5,7-dimethyl-1,2,4-triazolo-1,5A-pyrimidine-2-sulfonamide], the “Percent Conversion” value [5] was 88% and the “metabolism … expressed P450SU1” value [5] was “metabolized”.

With C[n+]1cccnc1[O-] [compound 10022, 1-methyl-2(1H)-pyrimidinone] the “Percent Conversion” value [6] was 96%, the “metabolism … expressed P450SU2” value [6] was “metabolized” and the “Percent Conversion” value [7] was 0%. For the same compound, the “Percent Conversion” value [8] was 42%.

COC(=O)c1ccccc1S(=O)(=O)NC(=O)Nc1nc(C)nc(O)n1 [compound 10007, N-[(4-hydroxy-6-methyl-1,3,5-triazinyl)aminocarbonyl]-2-methoxycarbonylbenzenesulfonamide] gave a concentration in supernatant ([1]; substrate 10006, 2 h) of 12 µM, a concentration in supernatant ([1]; substrate 10006, 4 h) of 21 µM and a concentration in supernatant ([1]; substrate 10006, 6 h) of 30 µM. It also gave a concentration in supernatant (S. lividans pCAO200 [9]; 2 h) of 4 µM, a concentration in supernatant (S. lividans pCAO200 [9]; 4 h) of 1 µM and a concentration in supernatant (S. lividans pCAO200 [9]; 6 h) of 1 µM. For the same compound, the concentration in supernatant ([3]; substrate 10006, 2 h) was 2 µM, the concentration in supernatant ([3]; substrate 10006, 4 h) was 2 µM and the concentration in supernatant ([3]; substrate 10006, 6 h) was 2 µM.

With COc1cc(OC)nc(NC(=O)NS(=O)(=O)c2cccc3c2S(=O)(=O)N(CCF)C3)n1 [compound 10026, N-[(4,6-dimethoxypyrimidin-2-yl)aminocarbonyl]-2-(2-fluoroethy1)-2,3-dihydro-1,2-benzisothiazole-7-sul fonamide-1,1-dioxide] the “metabolism by P450SU1” value (S. griseolus ATCC11796) was “metabolized”.

With CCCN1Cc2cccc(S(=O)(=O)NC(=O)Nc3nc(OC)cc(OC)n3)c2S1(=O)=O [compound 10027, N-[(4,6-dimethoxypyrimidin-2-yl)aminocarbonyl]-2,3-dihydro-2-propyl-1,2-benzisothiazole-7-sulfonamide-1,1-dioxide] the “metabolism by P450SU1” value (S. griseolus ATCC11796) was “metabolized”.

In the case of COc1cc(OC)nc(NC(=O)NS(=O)(=O)c2cccc3c2S(=O)(=O)N(Cc2ccccc2)C3)n1 [compound 10025, N-[(4,6-dimethoxypyrimidin-2-yl)aminocarbonyl]2,3-dihydro-2-(phenylmethyl)-1,2-benzisothiazole-7-sulfonamide-1,1-dioxide], the “metabolism by P450SU1” value (S. griseolus ATCC11796) is reported as “metabolized”.

Reference: US5349127A, “Expression of herbicide metabolizing cytochromes P450” (priority 1992, dated 1994)
